Measured values reported in ChEMBL document CHEMBL3507680, “University of Dundee, Gates Library screen for HepG2 cell viability”.

Experiment: Human HepG2 cell viability assay in 384 well format
Type: toxicity, cell-based
Parameters: dose 125 nL, time 70.5 hour; concentration not given beside the values
Settings: HepG2 cells, read-out: Inhibition

| Compound | cytotoxicity at 70.5 h |
| --- | --- |
| N#CCCN(Cc1ccco1)C(=O)COC1CCCCC1 | 21.5% |
| O=C(CCCN1CCCCC1)NC(C(=O)O)c1ccc(Cl)cc1 (centres undefined) | -5.87% |
| c1ccc(CNc2ncc(CN3CC[C@H]4CC[C@@H](C3)N4)cn2)cc1 | 18.2% |
| CC(=O)Nc1cccc(CN2CCN(C3=NCC(C)(C)S3)CC2)c1 | -10.7% |
| O=C(c1cc2c(s1)CCC2)N1CCCC(c2cnccn2)C1 (centres undefined) | -17% |
| CC(C(=O)N1CCCN(c2ccc(C#N)cc2)CC1)n1ccnc1 (centres undefined) | -1.24% |
| O=C1CCCN1Cc1nnc2n1CCN(Cc1ccoc1)CC2 | 30% |
| O=C(c1cn(CC(=O)N2CCCCC2)c2ccccc12)C1CC1 | 24% |
| CC(C)CC1SCC(=O)Nc2c1cnn2C(C)C (centres undefined) | -9.09% |
| O[C@@]1(CNCCCOc2cccnc2)CCCN2CCCC[C@@H]21 | 5.47% |
| O=C(NCCNc1ncccn1)c1scnc1Cl | 9.91% |
| Cc1nc(CN(C)C)cc(N2CCCC(COc3ccc(F)cc3)C2)n1 (centres undefined) | -5.18% |
| CCN(Cc1ccc2c(c1)OCO2)C(=O)c1ccc(C)[nH]c1=O | 35.4% |
| CC(C)c1nc(CN2CCOC(CNc3cccnn3)C2)cs1 (centres undefined) | -8.93% |
| CC1(NC(=O)Cc2cccs2)CCS(=O)(=O)C1 (centres undefined) | -85.8% |
| Cc1ccc2c(n1)N(CC1CC1)CCN(Cc1ccco1)C2 | 1.82% |
| COc1ccc(C)cc1NC(=O)Cn1nc(C)c(C#N)c1N | -5.55% |
| CC1=C(C#N)C(=O)NC(=O)/C1=C\c1c(C)nn(-c2ccccc2)c1O | -2.78% |
| O=C(c1cccnc1N1CCN(Cc2ccoc2)CC1)N1CCCCC1 | -0.284% |
| CCN(CC1CCCO1)C(=O)CSCC(=O)Nc1ccc(C)cc1 (centres undefined) | -1.48% |
| Cc1cc(CN2CCN(C(=O)C(C(C)C)n3cncn3)CC2)no1 (centres undefined) | -8.12% |
| Cc1nccn1C1CCCN(C(=O)COCC2CC2)C1 (centres undefined) | -6.29% |
| O=C([C@H]1CCCO1)N1CCCC2(COCCN(c3ccccc3)C2)C1 (some centres undefined) | -10.4% |

| Compound | cytotoxicity at 70.5 h |
| --- | --- |
| Cc1cnn(CC2CCCCN2c2ncnc3ccccc23)c1 (centres undefined) | -5.59% |
| Cc1n[nH]cc1CNCC1(c2cccc(F)c2)CCOCC1 | -5.63% |
| CC(C)NC(=O)N1CCC2(CC1)NC(=O)CC2c1ccncc1 (centres undefined) | -1.45% |
| CC1CCC(NC(=O)c2nn(C)cc2I)CC1 (centres undefined) | -7.74% |
| O=C(CCc1cc2n(n1)CCCN(CCc1ccccc1)C2)NC1CC1 | -11% |
| CCC(=O)NCc1cc(Br)c(OC)c(OC)c1 | -0.621% |
| CC(CNC(=O)N1CCN(Cc2ccon2)CC1)Cc1cccs1 (centres undefined) | -2.44% |
| COc1ccc(-c2nnc(SC(C)C(=O)NCC(C)C)[nH]2)c(OC)c1 (centres undefined) | 56.9% |
| CCC(CO)N(Cc1ccsc1)Cc1ccc(-c2ccn[nH]2)s1 (centres undefined) | -5.61% |
| CS(=O)(=O)N1CC2(CCN(C3CCCCC3)CC2)Cc2ccccc21 | -7.63% |
| COc1cc(CNCCn2cc(C)cn2)cc2c1OCCO2 | 1.39% |
| COc1cccc(-c2noc(C3CCN(Cc4ccccc4F)C3)n2)c1 (centres undefined) | 38.2% |
| Cc1noc(Cl)c1CCC(=O)N1CCN(c2cnccn2)CC1 | -16.7% |
| O=c1cc(CNCc2ccc3c(c2)OCO3)nc2ccccn12 | -6.34% |
| CC(=O)N1CCOC2(CCCN(Cc3ccc(N(C)C)cc3)C2)C1 (centres undefined) | -2.02% |
| CCN(CC)C(=O)Cn1cc(C(=O)NCCc2scnc2C)nn1 | -1.44% |
| CCOc1cncc(N(C)CC(=O)NC)n1 | -7.85% |
| Cc1ccc(C(=O)Nc2nnc(C3CC3)s2)c(-n2cnnn2)c1C | -14.4% |
| Cc1noc(C)c1CN1C[C@@H]2OCCN(Cc3cnn(C)c3)[C@@H]2C1 | -21.6% |
| CCNC(=O)[C@@H]1C[C@@H](N)CN1Cc1ccc(Sc2ccc(C)cc2)o1 | -4.77% |
| CCOc1cccc(NS(=O)(=O)c2cc(C(=O)O)cs2)c1 | -11.8% |
| Cc1noc(C)c1CNC(=O)N1CCC(OCC2CC2)CC1 | 25.4% |
| N#Cc1ccc(OCC(O)CN2CCC(c3ccn[nH]3)CC2)cc1 (centres undefined) | -14.4% |

| Compound | cytotoxicity at 70.5 h |
| --- | --- |
| Cc1nc[nH]c1CN1C[C@@H]2CC[C@H](C1)N(C(=O)CCc1cnn(C)c1)C2 | -1.54% |
| O=C(O)C1(Oc2ccc(Cl)cc2)CCN(C2CCOCC2)CC1 | -17.1% |
| COc1ccc(CNC(=O)NCc2ccc(C(N)=O)cc2)cn1 | -2.22% |
| COc1cc(C(=O)NCC2CCCO2)nc2c(C)cc(F)cc12 (centres undefined) | -25.4% |
| CC(C(N)=O)S(=O)(=O)Cc1cc(Cl)c2c(c1)OCO2 (centres undefined) | -12.5% |
| COc1ccc2c(c1)nc1n2[C@@H](CN(C2CCC2)C2CCC2)COC1 | 1.4% |
| Cc1nnc(SCCNC(=O)Cn2cnc3ccccc3c2=O)s1 | -4.19% |
| CC(C)(NC(=O)C1CCN(C2CCCCC2)CC1)c1nnc(N)s1 | 1.76% |
| Cc1cc2ncn(C(=O)N3CCCCC3)c2cc1C | -7.84% |
| O=C(c1ccncc1)N1CCc2c(COCC3CC3)cncc2C1 | 0.493% |
| Cc1cc(CN(C)C(=O)C2CCCN(C(=O)c3cccs3)C2)no1 (centres undefined) | -10.3% |
| COC(=O)COn1c(SC(C)C)nc2ccccc2c1=O | -3.63% |
| COc1cccc(C(CO)NC(=O)Cc2cccc(C)c2)c1 (centres undefined) | -4.94% |
| CCCn1nc(C)c(C(=O)N(C)[C@@H]2CC[C@@H](OC)[C@@H]2O)c1C | -3.89% |
| CCc1onc(C)c1C(=O)N1CCC(c2cc3ncccc3cn2)CC1 | 9.24% |
| Cc1cccc2c(CCNC(=O)NCCC[S+](C)[O-])c[nH]c12 (centres undefined) | -1.72% |
| O=C(c1ccc[nH]1)N1Cc2nccn2CC(Cn2ncccc2=O)C1 (centres undefined) | -6.79% |
| CC(C)COCC(C)NC(=O)NCc1cccc(-n2cncn2)c1 (centres undefined) | -2.93% |
| CC1CCCN(Cc2cccc(C(=O)Nc3nccs3)c2)C1 (centres undefined) | -11.3% |
| CN(Cc1ccncc1)c1cncc(Br)c1 | -14.6% |
| Cc1ccc(CN(C)C(=O)c2cc(Cn3ccnc3C(C)C)[nH]n2)o1 | 3.51% |
| CCOc1ccccc1CNC(=O)Cn1ccc2c(C)nn(C)c2c1=O | -5.58% |
| COc1cnc(CSc2nnc(C)s2)cc1OCC(=O)NC1CCCC1 | 2.36% |

| Compound | cytotoxicity at 70.5 h |
| --- | --- |
| COCc1cc(CNC(=O)c2c(C)c(C)cc(C)c2C)n[nH]1 | -4.32% |
| O=C(NCc1cccnc1-n1cncn1)c1ccncc1 | -4.72% |
| CCn1ccc(NC(=O)CN2C(=O)C(C)(C)c3ccccc32)n1 | -11.1% |
| CC(C)C(=O)NCc1cccc(N2CCCCC2=O)c1 | -12.2% |
| N#Cc1cccc(CN2C[C@H](OCC3CCOCC3)[C@H]3COC[C@H]32)c1 | -5.67% |
| Cc1nn(C)cc1S(=O)(=O)NCC(c1ccccc1Cl)N1CCCC1 (centres undefined) | -6.74% |
| CCOc1nnc(CN2CCN(CCOC)C(C)C2)s1 (centres undefined) | -7.83% |
| COc1c(C(=O)N2CCOCC2)cnc2c1c(C)nn2C | 0.987% |
| CN(CCOc1ccc(F)cc1)S(=O)(=O)N1CCOCC1 | -9.68% |
| Cc1nc(Cn2c3c(ccc2=O)CCN(CC2CCC2)CC3)cs1 | -9.15% |
| O=c1c(Cc2ccccc2)c(O)ccn1Cc1ccco1 | 0.508% |
| Cc1cnc(-c2nc(-c3cccc(CN4CCOCC4)c3)no2)cn1 | -4.86% |
| O=C1Nc2ccccc2C12CCCN(Cc1ccc3c(c1)OCCO3)C2 (centres undefined) | -11.8% |
| Cc1nc2c(s1)C(N(C)C(=O)NCCCC(C)(C)CO)CCC2 (centres undefined) | -6.11% |
| CCCc1nc(C)c(C(=O)NCCNc2ncccn2)s1 | -6.59% |
| Cc1nc(N)sc1C(=O)N1Cc2ccccc2OC2(CCOCC2)C1 | 31.2% |
| CCc1nc2c(N3CCC4(CC3)CC(=O)N(CC(C)C)C4)ncnc2o1 | 1.84% |
| CC(C)c1nc2n(n1)CC(NCc1nnc(C3CC3)o1)CC2 (centres undefined) | 0.876% |
| COc1c(CNC2CCOc3c(F)cccc32)c(C)nn1C (centres undefined) | -3.45% |
| Cc1occc1C(=O)NC1CCN(C(=O)Nc2cccnc2)CC1 | -5.69% |
| Cc1ccccc1CN1CCC(NCC2CNc3ccnn3C2)CC1 (centres undefined) | 0.228% |
| CC(=O)NCCNC(=O)c1nc(C2CC2)n(-c2ccccc2Cl)n1 | -13.6% |
| CC(NCc1ccsc1)c1ccc(OCc2nccn2C)cc1 (centres undefined) | -3.28% |

| Compound | cytotoxicity at 70.5 h |
| --- | --- |
| Cn1c(CN2CCCC(Cn3cc(CCO)nn3)C2)cc2ccccc21 (centres undefined) | -0.291% |
| CCN1C(=O)[C@]2(CC[C@@H]3CN(C(=O)NCC(C)C)C[C@@H]32)N=C1C | -2.72% |
| Cc1cnn(CC2CCCN2CC(=O)Nc2cc(C)nn2C)c1 (centres undefined) | 9.7% |
| CC(Oc1ccc2c(c1)OCO2)C(=O)Nc1ccon1 (centres undefined) | -6.17% |
| COCC(=O)NC(C)Cc1ccc(Br)cc1 (centres undefined) | 2.28% |
| CS(=O)(=O)N1C[C@@H]2COC[C@H](C(=O)Nc3cnccn3)[C@@H]2C1 | 59.3% |
| Cn1nc(C2CCCN(Cc3ccsc3)C2)c2nccnc21 (centres undefined) | -0.972% |
| CC1CCN(C(=O)[C@@H]2C[C@@H]3CCN(CC4CCOCC4)C[C@@H]3O2)CC1 | -7.26% |
| CN1CCN([C@@H]2CN(C(=O)c3cc4cccc(F)c4[nH]3)C[C@H]2O)CC1 | -1.94% |
| COc1cccc(CNCCc2cc(F)cc3c2OCOC3)c1 | 14.9% |
| CNC(=O)C1CCN(C(=O)NCCc2ccc(Cl)s2)CC1 | -5.01% |
| CCN(CCNC(=O)C1CCN(C(C)=O)CC1)c1ccccc1C | -12.4% |
| N#Cc1cccc(NC(=O)N(CC(F)F)C2CC2)c1 | -2.73% |
| Fc1cnc(N2C[C@H]3CN(Cc4cccc(F)c4)C[C@H]3C2)nc1 | -13.6% |
| Cc1noc(C)c1CN1CCC(N(C)Cc2noc(C(C)C)n2)C1 (centres undefined) | 5.99% |
| Cc1csc2c(=O)n(CCN3CCNCC3)cnc12 | 11.9% |
| c1cc(CNCC2CNc3ccnn3C2)cc(OC2CCCCC2)n1 (centres undefined) | -7.62% |
| O=C(c1ccoc1)N1CCn2cnc(COCC3CC3)c2C1 | 4.58% |
| Cn1cc(CNc2cnn(CC3CCCO3)c2)c(-c2ccncc2)n1 (centres undefined) | 4.43% |
| c1ccc(-c2nc(CN3CCCC3Cn3cncn3)no2)cc1 (centres undefined) | -13.3% |
| Cc1c(C2CCCN(C(=O)c3ccncc3)C2)n2c(nc1=O)CCC2 (centres undefined) | -9.8% |
| Cc1c(Br)cc2c(c1C)OCC(N(C)C)C2=O (centres undefined) | 19.9% |
